Test results reported in US6815556B2, “Compounds having fungicidal activity and processes to make and use same” (Dow AgroSciences LLC, priority 2000, dated 2004).
Read-outs that look alike come from different tables or passages of the source.

Tests used:
Septoria tritici = assay: Leaf Blotch of Wheat, 1-day protectant whole plant test; format: in vivo; conditions: Zymoseptoria tritici, 24 h, read-out: SEPTTR percent control
Phytophthora infestans = assay: whole plant or invertebrate; format: in vivo; conditions: 24 h, read-out: PHYTIN percent control
Plasmopara viticola = assay: whole plant or invertebrate; format: in vivo; conditions: 24 h, read-out: PLASVI percent control
[1] = 100 ppm spray, wheat plants (variety Monon), one-day protectant test, vs untreated inoculated plants

Row | Compound | pest or weed control at 100 ppm (Septoria tritici; [1]) | pest or weed control at 100 ppm (Phytophthora infestans) | pest or weed control at 100 ppm (Plasmopara viticola) | pest or weed control at 100 ppm (Septoria tritici) | melting point
1 | CCC(c1ccc(Cl)cc1)S(=O)(=O)C[C@@H](NC(=O)OC(C)C)C(C)C (some centres unmarked) [Compound 23] | 50 to 89% | 50 to 89% | 50 to 89% |  | 
2 | CC(C)OC(=O)N[C@H](CS(=O)(=O)C(C)c1ccc(Br)c([N+](=O)[O-])c1)C(C)C (some centres unmarked) [Compound 24] |  | 90 to 100% | 90 to 100% |  | 
3 | CC(C)OC(=O)N[C@H](CS(=O)(=O)C(C)c1cc2ccc(F)cc2o1)C(C)C (some centres unmarked) [Compound 25] |  | 90 to 100% | 90 to 100% |  | 
4 | C=CCC(c1ccc(C#N)cc1)S(=O)(=O)C[C@@H](NC(=O)Oc1ccc(C)cc1)C(C)C (some centres unmarked) [Compound 26] |  | 90 to 100% | 90 to 100% |  | 
5 | CC(C)[C@@H](CS(=O)(=O)C(C)c1ccc(C#N)cc1)NC(=O)OCC(Cl)(Cl)Cl (some centres unmarked) [Compound 27] | 50 to 89% | 90 to 100% | 90 to 100% |  | 
6 | C=C(C)OC(=O)N[C@H](CS(=O)(=O)C(C)c1ccc(C#N)cc1)C(C)C (some centres unmarked) [Compound 28] |  | 90 to 100% | 90 to 100% |  | 
7 | Cc1ccc(OC(=O)N[C@H](CS(=O)(=O)C(C)c2ccc(C#N)cc2)C(C)C)cc1 (some centres unmarked) [Compound 29] |  | 90 to 100% | 90 to 100% | 50 to 89% | 65 to 74 °C
8 | CC(C)[C@@H](CS(=O)(=O)C(C)c1ccc(C#N)cc1)NC(=O)Oc1ccc(Br)cc1 (some centres unmarked) [Compound 30] |  | 90 to 100% | 90 to 100% |  | 
9 | CC(C)[C@@H](CS(=O)(=O)C(C)c1ccc(Br)cc1)NC(=O)Oc1ccc2ccccc2c1 (some centres unmarked) [Compound 31] |  | 90 to 100% | 90 to 100% |  | 129 to 135 °C
10 | CCOc1ccc(OC(=O)N[C@H](CS(=O)(=O)C(C)c2ccc(Br)cc2)C(C)C)cn1 (some centres unmarked) [Compound 32] |  | 90 to 100% | 90 to 100% |  | 
11 | Cc1ccc(OC(=O)N[C@H](CS(=O)(=O)C(C)c2ccc(C#N)cc2)C(C)C)cc1C (some centres unmarked) [Compound 33] |  | 90 to 100% | 90 to 100% |  | 
12 | CC(C)[C@@H](CS(=O)(=O)C(C)c1ccc(C#N)cc1)NC(=O)Oc1ccccc1Br (some centres unmarked) [Compound 34] |  | 90 to 100% | 90 to 100% |  | 
13 | CC(C)OC(=S)N[C@H](CS(=O)(=O)C(C)c1ccc(C#N)cc1)C(C)C (some centres unmarked) [Compound 35] |  | 90 to 100% | 90 to 100% |  | 
14 | CCSC(=O)N[C@H](CS(=O)(=O)C(C)c1ccc(C#N)cc1)C(C)C (some centres unmarked) [Compound 36] |  | 50 to 89% | 50 to 89% |  | 
15 | CC(C)[C@@H](CS(=O)(=O)C(C)c1ccc(C#N)cc1)NC(=O)Nc1ccc(C(F)(F)F)cc1 (some centres unmarked) [Compound 37] |  | 90 to 100% | 90 to 100% |  | 
16 | CC[C@@H](CS(=O)(=O)C(C)c1ccc(C#N)cc1)NC(=O)Oc1ccc(C)cc1 (some centres unmarked) [Compound 38] |  | 90 to 100% | 90 to 100% |  | 50 to 60 °C
17 | CCC(C)[C@@H](CS(=O)(=O)C(C)c1ccc(Br)cc1)NC(=O)OC(C)C (some centres unmarked) [Compound 39] |  | 90 to 100% | 90 to 100% |  | 
18 | COC(C)[C@@H](CS(=O)(=O)C(C)c1ccc(C#N)cc1)NC(=O)Oc1ccc(C)cc1 (some centres unmarked) [Compound 40] |  | 90 to 100% | 90 to 100% |  | 
19 | CC(c1ccc(C#N)cc1)S(=O)(=O)C[C@H](CC1CCCCC1)NC(=O)OC(C)(C)C (some centres unmarked) [Compound 41] |  | 50 to 89% | 90 to 100% |  | 58 to 65 °C
20 | CC[C@@H](CS(=O)(=O)C(C)c1ccc(C#N)cc1)NC(=O)Oc1ccc(F)cc1 (some centres unmarked) [Compound 42] |  | 90 to 100% | 90 to 100% |  | 50 to 62 °C
21 | COc1cccc(OC(=O)N[C@H](CS(=O)(=O)C(C)c2ccc(C#N)cc2)C(C)C)c1 (some centres unmarked) [Compound 43] |  | 50 to 89% | 90 to 100% |  | 50 to 53 °C
22 | CC(C)OC(=O)N[C@@H](C(C)C)C(C)S(=O)(=O)C(C)c1ccc(Br)cc1 (some centres unmarked) [Compound 44] |  | 90 to 100% | 50 to 89% |  | 
